Laboratory results: patent US6683079B2, “3-(amino-or aminoalkyl) pyridinone derivatives and their use for the treatment of HIV related diseases” (Centre National de la Recherche Scientifique, priority 1998, dated 2004)

Assays:
HIV-1 strain IIIB = assay: Retrovirucidal effect on HIV-1 strain IIIB (Table 3); format: cell-based; details: pIC50=-log IC50, IC50 in M
Summary of the method: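 Virus (100 TCID50 HIV-1 in cell supernatant) exposed to compound 3 h at room temperature, then washed free of compound by membrane filtration. Residual infectivity measured on P4 cells after one day as β-galactosidase activity with MUG substrate (3 h, 37° C), read by fluorescence.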

HIV-1 strain 103 N = assay: Retrovirucidal effect on HIV-1 strain 103 N (Table 3); format: cell-based; details: HIV-1 strain 103N (RT Lys-103 to Asn mutant); pIC50=-log IC50, IC50 in M
Summary of the method: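 HIV-1 103N (RT K103N mutant; 100 TCID50) was exposed to inhibitor for 3 h at room temperature and then washed free of compound by membrane filtration. Residual infectivity was measured on P4 cells: one day after infection, β-galactosidase was read by MUG fluorescence after 3 h at 37 °C.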

Compound	HIV1 pIC50 strain IIIB (HIV-1 strain IIIB)	HIV1 pIC50 strain 103N (HIV-1 strain 103 N)
CCc1c(C)[nH]c(=O)c(N(C)C)c1C(=O)c1ccc(C)o1 [Compound 158]	8.041	6.625
CCc1c(C)[nH]c(=O)c(N(C)C)c1Sc1cccc(C)c1 [Compound 160]	8.678	7.177
CCc1c(C)[nH]c(=O)c(N(C)CCOC)c1Cc1cccc(C(F)(F)F)c1 [Compound 161]	7.821	5.814
CCc1c(C)[nH]c(=O)c(N(C)C)c1COc1cccc(C)c1 [Compound 162]	6.418	5.026
CCc1c(C)[nH]c(=O)c(N(C)C)c1CNc1cccc(C)c1 [Compound 163]	5.596	4.236
CCc1c(C)[nH]c(=O)c(N(C)CC=C(C)C)c1Cc1cccc(C)c1 [Compound 164]	7.818	6.505
CCc1c(C)[nH]c(=O)c(N(C)C)c1C(O)Cc1cccc(C)c1 (centres unmarked) [Compound 165]	4.354	<4
CCc1c(C)[nH]c(=O)c(N(C)C)c1CSc1cccc(C)c1 [Compound 166]	5.693	4.518
CCc1c(C)[nH]c(=O)c(N(C)C)c1CNc1ccc(C#N)cc1 [Compound 167]	6.338	5.828
CCc1c(C)[nH]c(=O)c(N)c1C(=O)c1ccc(OC)c(C)c1 [Compound 168]	4.525	4.806
CCc1c(C)[nH]c(=O)c(N(C)C)c1C(=O)c1ccc(OC)c(C)c1 [Compound 169]	7.101	5.771
CCc1c(C)[nH]c(=O)c(N(C)C)c1[S+]([O-])c1cc(C)cc(C)c1 (centres unmarked) [Compound 170]	8.553	7.224
CCc1c(C)[nH]c(=O)c(N(C)C)c1CNc1ncccn1 [Compound 171]	5.895	4.74
Cc1cc(C)cc(Cc2c3c([nH]c(=O)c2N)CCCC3)c1 [Compound 172]	6.419	4.903
Cc1cc(C)cc(Cc2c3c([nH]c(=O)c2N(C)C)CCCC3)c1 [Compound 173]	8.086	6.489
CCc1c(C)[nH]c(=O)c(N(C)C)c1C(=O)c1cccc(Br)c1 [Compound 174]	8.921	7.68
CCc1c(C)[nH]c(=O)c(N(C)CCOC)c1C(=O)c1cccc(C)c1 [Compound 175]	8.921	7.717
CCc1c(C)[nH]c(=O)c(N(C)C)c1Nc1cccc(C)c1 [Compound 176]	8.432	6.436
CCc1c(C)[nH]c(=O)c(N)c1C(=O)c1cccs1 [Compound 177]	5.106	<4
CCc1c(C)[nH]c(=O)c(N(C)C)c1C(=O)c1cccs1 [Compound 178]	7.873	6.461
CCc1c(C)[nH]c(=O)c(NC)c1C(=O)c1cccc(Br)c1 [Compound 179]	8.42	7.182
CCc1c(C)[nH]c(=O)c(N(C)CC)c1C(=O)c1cccc(Br)c1 [Compound 185]	8.745	7.433
